Assay type in all cases: in vivo, human
Data set [1] concerns healthy subjects. The data set is described as follows: Blood potassium, glucose and other peripheral effects of Compound 03-5 with or without nadolol. From the text: Data are presented as individual observations for all available subjects.
(§1) Routine measures of ECG, vital signs, safety labs, physical exams and plasma sample collections for analysis of drug pharmacokinetics (PK) were undertaken according to the Schedule of Events (Table 1).

For data set [2], the system named is healthy subjects. The data set is described as follows: Heart rate by triplicate ECG after Compound 03-5 with or without nadolol pre-administration. How it is done:
Heart rate was measured by triplicate ECG recordings. Data are presented as means changes from time-matched measures recorded on the day before the first dose of study drug (Day −1).
Healthy volunteers were be enrolled into 2 cohorts in a study to undertake within-subject dose titration of Compound 03-5 and/or nadolol in order to explore doses/dose combinations that mitigate peripheral effects of Compound 03-5, e.g. on heart rate, while preserving possible central effects of Compound 03-5 on cerebral perfusion and pupillary light reflex.
Cohort D1 enrolled 8 healthy subjects and undertook an evaluation of the effects of treatment on ECG following repeat dosing of Compound 03-5 in the presence of escalating doses of nadolol according to following schematic.
Eight healthy subjects aged 18-50 years were enrolled into Cohort D1 and received escalating doses of Compound 03-5 (3-12 mg) administered once daily 2 hours follow pre-administration of nadolol (1-40 mg). On all dosing days, study drug(s) were administered orally after an overnight fast of at least 8 hours.
as §1
(§2) In Cohort D2, 8 healthy volunteers aged 55-75 years were admitted on Day −1 for a 5-day confinement period at the research facility. During this confinement, subjects received escalating doses of open label Compound 03-5 (1-10 mg) once-daily from Day 1 through Day 3 2 hours after pre-administration of open-label nadolol (3 mg) one each for the 3 dosing days according to the following schematic. Subjects remained in-residency until all study procedures are completed on Day 4.

The subject of data set [3] is healthy volunteers aged 55-75 years. As to the kind of experiment: CANTAB cognition battery, Cohort D2. The note with it: Compound 03-5 1, 3 and 10 mg once daily, 2 h after 3 mg nadolol, change from within-day pre-dose. The protocol: CANTAB data from healthy adults 55-75 years of age (N=4) who received once-daily 3 mg nadolol and Compound 03-5 (1, 3, and 10 mg) on Day 1, Day 2 and Day 3. […] Data are presented as mean changes from the within-day pre-dose assessment.
In some embodiments, cognition may be evaluated using the Cambridge Neuropsychological Test Automated Battery (CANTAB) assessment (see, for example, Sahakian, et al., (1988). Brain. 111 (3): 695-718). Cognitive domains, such as attention, visuospatial working memory, episodic memory, speed of process and executive function can be assessed using the CANTAB Battery Test, which includes the following: • Reaction Time (RTI), • Paired Associates Learning (PAL), • Verbal Recognition Memory (VRM) Immediate Free Recall, • Rapid Visual Information Processing (RVP), • Spatial Working Memory (SWM), • Adaptive Tracking, and • VRM Delayed Free recall and Forced-Choice Recognition.
as §2

The test system of a further data set is subjects. As to the kind of experiment: Visual verbal learning test (VVLT). The note with it: crossover study, Part A.
Data set [4] relates to healthy subjects. As to the kind of experiment: ASL MRI cerebral perfusion before and after a single dose in healthy subjects (Example 3). How it is done:
The data are plotted as change from baseline in cerebral blood flow in different regions of the brain.
Six healthy subjects aged 44-52 were treated with a single dose of […]. The Baseline vs. post-dose paired t-tests results: p=0.019. The color scale is shown in the middle and indicates cerebral blood flow with low values in red and high values in yellow.
In a clinical study, healthy subjects were administered doses of clenbuterol ranging from 20 to 160 μg and ASL MM was conducted prior to and after dosing with an objective to ascertain whether this neuroimaging method enables the detection of a clinically relevant CNS signal.
In a region of interest (ROI) analysis focusing on the hippocampus, which is well understood to be affected in neurodegenerative disorders, a single dose of 80 μg of clenbuterol causes a robust increase in perfusion (see FIG. 7). […] Taken together with other cohorts in which ASL MM was conducted, a clear dose response relationship is seen between dose of clenbuterol and cerebral perfusion (FIG. 8). […] Our hypothesis is that by improving cerebral perfusion, particularly in areas of the brain that are relevant for symptoms that are commonly found in neurodegenerative diseases such as PD and AD, the administration of a β-AR agonist (such as a β-agent) will have a positive effect on clinically relevant symptoms such as memory and cognition.

The subject of data set [5] is healthy subjects. As to the kind of experiment: Adaptive tracking test (visuomotor coordination and vigilance). The note with it: single dose of 160 μg clenbuterol. From the text:
Adaptive tracking measures visuomotor coordination and vigilance. In this test, the subject uses a joystick to move a small dot so that it stays within a continuously moving circle on a computer screen (Boland 1984). During the test, the speed of the circle is adjusted in response to the subject's ability to keep the dot in the circle, ensuring that the test is adapted to the individual subject. […] The improvement shown by subjects is in the same range as that seen with subjects treated with the acetylcholinesterase inhibitor donepezil, which is in clinical use for the treatment of mild to moderate AD (Groeneveld 2016).

In a further data set the test system is patients. The data set is described as follows: Cerebral blood flow relative to baseline after a single dose in patients (Example 1).
The mark [6] stands for this setting: clenbuterol doses of 80 and 160 μg.

Five compounds from patent publication US20230263749A1, “COMPOSITIONS AND METHODS FOR IMPROVING NEUROLOGICAL DISEASES AND DISORDERS” (CuraSen Therapeutics, Inc., priority 2020, published 2023) can be followed below.

“Also recorded” adds a separate entry of the source.

Take `CC(C)(C)NCC(O)COc1cccc2c1CC(O)C(O)C2` (stereo not shown) [nadolol]: the “effect of nadolol on Compound 03-5 hypokalemia” value in the data set on healthy subjects [1] (nadolol 1-40 mg, Cohorts D1 and D2) is “attenuation of hypokalemia”. The “effect of nadolol on effects of Compound 03-5 on blood glucose and potassium, tachycardia, tremor and palpitations” value in the data set on healthy subjects [1] (pre-administration of 1 mg nadolol, 6 mg Compound 03-5) is given as “Concomitant attenuation”. Also, the “effect of nadolol on peripheral effects of Compound 03-5 on heart rate, glucose, potassium, tachycardia, tremor and palpitations” value with healthy subjects [2] (Cohort D1, pre-administered nadolol 1 mg up to 40 mg, Compound 03-5 3-12 mg) is on record as “blocked the peripheral effects”. Besides, the “effect of nadolol on Compound 03-5 increase in heart rate and other peripheral effects including hyperglycemia and hypokalemia” value with healthy subjects [2] (Cohort D1, pre-administration of 1 mg nadolol, Compound 03-5 orally up to 6 mg) is given as “substantially attenuated”. Further, the “effect of nadolol on peripheral effects of Compound 03-5 on heart rate, etc.” value with healthy subjects [2] (Cohort D2, pre-administered nadolol 3 mg, Compound 03-5 1-10 mg) was “similarly blocked the peripheral effects”.

Consider `CC(C)(C)NC[C@H](O)c1cccc(C#N)n1` [Compound 03-5, (S)-6-(2-(tert-butylamino)-1-hydroxyethyl)picolinonitrile], for which the “hypokalemia (blood potassium levels)” value with healthy subjects [1] (Compound 03-5 monotherapy 0.3 mg-6 mg, Cohorts A1-A5) was “Dose-dependent increases in hypokalemia”. Also, the “mean maximum increase in heart rate” value with healthy subjects [2] (6 mg Compound 03-5 after pre-administration of 1 mg nadolol) was 7 beats per minute. Further, the “performance in the CANTAB cognition battery” value in data set [3] is given as “improvements in performance in the CANTAB cognition battery”.

`CC(C)(C)NCC(O)c1ccc(O)c(CO)c1` (stereo not shown) [salbutamol]: the “effect on the VVLT” value with subjects is “positive effects”.

As for `CC(C)(C)NCC(O)c1cc(Cl)c(N)c(Cl)c1` (stereo not shown) [clenbuterol], the “increase in hippocampal perfusion, on average” value in the data set on healthy subjects [4] (6 healthy subjects aged 44 to 52, single dose of 80 μg clenbuterol, hippocampus ROI) is 25%. The “cerebral perfusion increase as measured by CBF” value in the data set on healthy subjects [4] (clenbuterol dose of 40 μg) is reported as “minimal increase”; with healthy subjects [4] (clenbuterol doses below 30 μg), “do not produce significant cerebral perfusion increases”. In addition, the “global perfusion (ASL MRI)” value in the data set with healthy subjects [4] (setting [6]) is recorded as “robust, global increase in perfusion”. The “improvement in perfusion in brain areas relevant to the neuropathology of neurodegenerative disorders” value with healthy subjects [4] (setting [6]) is about 25%. Further, the “cerebral perfusion (ASL MRI)” value in the data set with healthy subjects [4] (healthy subjects, single dose of 160 μg clenbuterol) is given as “robust global increase in cerebral perfusion”. For the same compound, the “cognition as measured by adaptive tracking and word recall” value with healthy subjects [5] (healthy subjects, preliminary data) is on record as “improves cognition”. Moreover, in the data set on healthy subjects [5], the “performance in adaptive tracking (percent time dot kept within moving circle)” value is “improved adaptive tracking; also recorded: performance in adaptive tracking improves”. Besides, the “effect on the VVLT” value in the data set with subjects is recorded as “positive effects”. For the same compound, the “cerebral blood flow (CBF) relative to baseline” value in the data set on patients (single dose of clenbuterol 160 μg) is “robust global increase in cerebral blood flow; also recorded: positive increase in cerebral blood flow”; in the data set with patients (single dose of clenbuterol 160 μg and nadolol 5 mg) it was “robust global increase in cerebral blood flow”; in the data set with patients (single dose of clenbuterol ranging from 30 to 160 μg, tracked over 3 days) it was “robust global increase in cerebral blood flow”.

Regarding `CC(C)NCC(O)COc1cccc2[nH]ccc12` (stereo not shown) [pindolol], the “effect on the VVLT” value in the data set on subjects was “detrimental effect”.
